Data taken from PubChem BioAssay (NCI).
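Dose response: 5 concentrations. Exposure: 48 h. Format: 96-well plates. Endpoint: linear interpolation; highest concentration if not reached. The concentration for full growth arrest is given as TGI.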

Assays:
Assay in all cases: NCI-60 cell line screen, 48 h
LOX IMVI melanoma = system: LOX IMVI melanoma
SF-268 CNS = system: SF-268 CNS
786-0 renal = system: 786-0 renal
ACHN renal = system: ACHN renal
U251 CNS = system: U251 CNS
MDA-N = system: MDA-N
HCT-116 colon = system: HCT-116 colon
RXF 393 renal = system: RXF 393 renal
COLO 205 colon = system: COLO 205 colon
SN12C renal = system: SN12C renal
HOP-62 NSCLC = system: HOP-62 NSCLC

SMILES | TGI (LOX IMVI melanoma) | TGI (SF-268 CNS) | TGI (786-0 renal) | TGI (ACHN renal) | TGI (U251 CNS) | TGI (MDA-N) | TGI (HCT-116 colon) | TGI (RXF 393 renal) | TGI (COLO 205 colon) | TGI (SN12C renal) | TGI (HOP-62 NSCLC)
Cc1sc2c(c1C)/C(=N\O)c1cccn1-2 | > 100 µM | > 100 µM | 52.3 µM | > 100 µM | 69.7 µM | > 100 µM | > 100 µM | 65.5 µM | > 100 µM | > 100 µM | 63.3 µM
O=C(/C=C/c1cccc(Oc2ccccc2)c1)NCc1ccc(C(=O)NCCc2ccccc2)cc1 | > 100 µM | > 100 µM | > 100 µM | > 100 µM | > 100 µM | > 100 µM | > 100 µM | 61.1 µM | > 100 µM | > 100 µM | > 100 µM
CCOC(=O)NC(OC)(C(F)(F)F)C(F)(F)F | > 100 µM | > 100 µM | > 100 µM | > 100 µM | > 100 µM | > 100 µM | > 100 µM | > 100 µM | > 100 µM | – | > 100 µM
CC(=O)Oc1c2c(c3n(c1=O)CCCC3)C(=O)N(c1ccccc1)C2=O | > 100 µM | > 100 µM | > 100 µM | > 100 µM | > 100 µM | > 100 µM | > 100 µM | > 100 µM | > 100 µM | > 100 µM | > 100 µM
O=c1ccn(C2OC(CO)C(O)C2F)c(=O)n1Cc1ccccc1 (stereo not drawn) | > 100 µM | > 100 µM | > 100 µM | > 100 µM | > 100 µM | > 100 µM | > 100 µM | > 100 µM | > 100 µM | > 100 µM | > 100 µM
COc1ccc2c3c([nH]c2c1)CCN(CCCC(=O)c1ccc(F)cc1)C3 | 26.7 µM | 34.1 µM | 27.1 µM | 30.8 µM | 32 µM | 35.1 µM | 25 µM | 28.5 µM | 25.5 µM | 29.7 µM | 27 µM
Cc1cc(S(=O)(=O)Nc2nnc3cnc4ccccc4n23)c(S)cc1Cl | > 100 µM | > 100 µM | > 100 µM | > 100 µM | > 100 µM | > 100 µM | > 100 µM | > 100 µM | > 100 µM | > 100 µM | > 100 µM
O=C1C(Cl)=C(N(C(=O)c2ccccc2)C(=O)c2ccccc2)C(=O)c2ccccc21 | > 100 µM | 21.7 µM | 34.7 µM | 13.9 µM | > 100 µM | 25.8 µM | 17.6 µM | 15.8 µM | 31 µM | 61.3 µM | > 100 µM
CN(C)c1ccc(/C=C(\NC(=O)c2ccccc2)C2=NC(CCC(=O)O)C(=O)O2)cc1 (stereo not drawn) | > 50 µM | > 50 µM | > 50 µM | > 50 µM | > 50 µM | > 50 µM | > 50 µM | > 50 µM | > 50 µM | > 50 µM | > 50 µM
C[C@@H]1C(=O)C[C@H]2C(C)(C)CCC[C@]2(C)[C@@]1(O)CCc1ccoc1 | > 100 µM | > 100 µM | > 100 µM | > 100 µM | > 100 µM | > 100 µM | > 100 µM | > 100 µM | > 100 µM | > 100 µM | > 100 µM
O=C1CC[C@@]2(O)[C@H]3Cc4ccc(-c5ccccc5)c5c4[C@@]2(CCN3CC2CC2)[C@H]1O5 | 32.8 µM | 29.7 µM | 30.3 µM | 42.4 µM | 32.1 µM | 32.9 µM | 32 µM | 23.7 µM | 35 µM | 72.4 µM | 40.6 µM
Nc1nc(Cl)cc(NC2(CO)CCC2)n1 | > 100 µM | > 100 µM | > 100 µM | > 100 µM | > 100 µM | > 100 µM | > 100 µM | > 100 µM | > 100 µM | > 100 µM | > 100 µM
COc1cc(OC)c2c3c(OC)cc(OC)c4c(=O)c(O)c(C[C@@H](C)O)c(c5c(C[C@@H](C)O)c(O)c(=O)c1c25)c43 | 35.3 µM | 70.4 µM | 44.8 µM | > 100 µM | 67.9 µM | 34 µM | 30.1 µM | 73.1 µM | 16.7 µM | 68.6 µM | > 100 µM
COC(=O)c1c(C#N)c(N)nc2c1CCC2 | > 100 µM | > 100 µM | > 100 µM | > 100 µM | > 100 µM | > 100 µM | > 100 µM | > 100 µM | > 100 µM | > 100 µM | > 100 µM
CCCCCCCCCCCCCCC(O)C[N+](C)(CCO)CCO (stereo not drawn) | 4.66 µM | 5.16 µM | 4.78 µM | 21.7 µM | 2.89 µM | 22.8 µM | 23.8 µM | 4.36 µM | 3.19 µM | 21.5 µM | 10.3 µM
O=C(CCC=C(S(=O)(=O)c1ccccc1)S(=O)(=O)c1ccccc1)c1ccccc1 | 10.3 µM | 18.8 µM | 11.8 µM | 20 µM | 15.6 µM | 14.8 µM | 13.9 µM | 20 µM | 19.8 µM | 13.1 µM | 40.3 µM
O=C(NC(=O)c1cc(-c2ccccc2)n[nH]1)c1ccccc1 | > 100 µM | > 100 µM | > 100 µM | > 100 µM | > 100 µM | > 100 µM | > 100 µM | > 100 µM | > 100 µM | > 100 µM | > 100 µM
Clc1ccc(-c2cn3c(nc4ccccc43)c(/C=C/c3ccco3)n2)cc1 | > 100 µM | > 100 µM | > 100 µM | > 100 µM | > 100 µM | > 100 µM | > 100 µM | > 100 µM | > 100 µM | > 100 µM | > 100 µM
Cc1ccc(-c2nc(N/N=C/c3ccc(O)cc3)c3ccccc3n2)cc1 | 36.2 µM | > 100 µM | 71.9 µM | 35.7 µM | 65.7 µM | 23.7 µM | 37.6 µM | 76 µM | > 100 µM | 25.4 µM | > 100 µM
